The target in data set [1] is T1, ENL-AFF4 interaction (Homo sapiens, UniProt Q03111).
T1 construct: ENL AHD domain (489-559) was synthesized (by Genscript) and inserted into the pMAL c5X expression plasmid; made in house; host or cells: E. coli BL21(DE3)
The experiment in a line: Alpha assay, ENL-AFF4 interaction. It is filed as binding. The settings on record: read-out: IC50, inhibition of ENL-AFF4 interaction. How it is done: ENL is also a major MLL fusion partner (~10%). The AHD domains of human ENL and AF9 share a high homology with 82% identity and 89% similarity (Figure S1A). […] Our attempts to develop an Alpha assay for ENL-DOT1L failed. […] Compound 1's activity against ENL-DOT1L was therefore not determined.
(§1) Alpha assays. Alpha assays were developed using Perkin-Elmer AlphaLisa anti-MBP kit, which contains streptavidin donor beads and anti-MBP acceptor beads. The assay was performed using a MBP-protein (5 nM), a biotinylated peptide (40 nM), and increasing concentrations of a compound in 25 µL buffer (PBS with 0.5 % BSA, pH 7.5) in 384-well plates according to the manufacturer's protocol and measured with a Tecan SPARK microplate reader. Data were imported into Prism (version 5.0), and IC50 values from 3 independent experiments with standard deviation were obtained by using a standard dose-response curve fitting.

For data set [2], the system named is AF9/ENL-DOT1L/AF4/AFF4 interactions. The experiment in a line: Biochemical assays of PPIs between AF9/ENL and DOT1L/AF4/AFF4 (overall). In kind it is binding, human. The settings on record: for IC50: range over the PPIs tested, read-out: IC50s against AF9/ENL-DOT1L/AF4/AFF4 interactions (range over PPIs). How it is done: Because both FP and Alpha assays are unsuitable for studies of AF9/ENL binding kinetics, we compared the IC50s of the inhibitor with the Kds of the PPIs (Table 1).
as §1
Fluorescence polarization assay. It was performed in 96-well black microplates with each well containing a Fluorescein-labeled peptide (2 nM) and increasing concentration of a AF9/ENL protein in a buffer (20 mM HEPES, pH 7.5, 0.01% Triton X-100, 100 µL) for Kd determination. For IC50 determination, a Fluorescein-labeled peptide (2 nM), AF9/ENL protein (100 nM) and increasing concentration of a compound in the same buffer were placed in each well. Upon incubation of 1h, the FP value of each well was determined using a Tecan SPARK microplate reader. Data were similarly processed to obtain Kd or IC50 values.

Data set [3] has as its system cancer cells. The experiment in a line: Antiproliferation assays, cancer cell panel. In kind it is cell-based. How it is done:
The differential antiproliferation activities of compound 1 is consistent with its ability to suppress DOT1L/H3K79 methylation and SEC regulated gene expression, which are critical to MLL-r leukemia and Myc-driven blood cancer, but largely dispensable to other solid tumor cells.
Antiproliferation assay. Proliferation inhibition assays for suspension blood cancer cells were performed using an XTT assay kit (Roche). Proliferation inhibition assays for solid tumor cell lines MCF-7, MDA-MB-231, Panc1, Panc28 were performed using an MTT assay (Sigma). The antiproliferation EC50 values were determined using Prism 5 and the reported results were the mean values of at least three independent experiments. The incubation time for compound 1 was 7 days and that for EPZ4777 was 14 days.

Data set [4] concerns MLL-AF9-bound DOT1L and AF4 in Molm-13 cells. The data set is described as follows: Co-immunoprecipitation with N-terminal MLL antibody. It is filed as cell-based. Particulars: 2 days. How it is done:
Next, we investigated how compound 1 affects these transcription cofactors in the nucleus, where they regulate gene expression. […] DOT1L inhibitor EPZ4777 [25] reduced the methylation levels of H3K79, but not other proteins (Figure 3B). […] In this regard, despite lack of activity against DOT1L, compound 1 can mimic EPZ4777 to reduce H3K79 methylation.
Co-immunoprecipitation. 10^8 Molm-13 cells were treated with a compound or DMSO for 48 hr. Co-immunoprecipitation of the nuclear protein extracts (450 µg of total protein from 10^8 molm-13 cells) was performed using a Nuclear Complex Co-IP Kit (#54001, Active Motif). Briefly, 3 µg of MLL-N Rabbit mAb (#14689, Cell signaling) and 100 µL Protein G Agarose Beads (#37478, Cell signaling) were added and incubated with the nuclear extractions overnight at 4 °C. The Agarose beads with captured antibody and relevant protein complexes were isolated, washed and subjected to Western blot for protein detection.

For data set [5], the system named is Molm-13 cells. The data set is described as follows: Flow cytometry for CD14 and CD11b (differentiation). It is filed as cell-based, human. The settings on record: 5 μM for 5 days. How it is done:
Compound 1 (5 μM for 5 days) induced significant differentiation, with more cell populations expressing CD14 and CD11b, two cell surface proteins for macrophages/monocytes (Figure 5B).
Flow cytometry. For Annexin V apoptosis assay, 10^5 cells/ml were incubated with increasing concentrations of a compound for 5 days. Apoptosis was determined using the FITC Annexin V Apoptosis Detection Kit I (BD Bioscience) using the manufacturer's protocol. For other FACS assays, cells were labeled with fluorochrome-conjugated monoclonal antibodies against human CD14 and CD11b (BD Biosciences) according to the manufacturer's recommendation. Cells were analyzed using a FACS Calibur (BD Biosciences/Applied Biosystems) and data were processed using the program Flowjo (version7.6.5).

Data set [6] has as its system MLL-r leukemia cells. The experiment in a line: Cytospin/Wright-Giemsa staining. It is filed as cell-based. Particulars: 5 μM for 5 days. How it is done: Cytospin/Wrigth-Giemsa staining. The MV4;11 and Molm-13 cells were plated in 6-well plates (2.5 mL/well) at an initial concentration of 10^5 cells/mL and treated with a compound or DMSO at 37 °C in a 5% CO2 incubator for 5 days. Cytospins were performed to smear cells (100 µL, 10^6 cells/mL) on slide. After air dry, the slides were Wright's-Giemsa stained and air-dried for over 30 mins before examination.

Data set [7] is described as follows: Tolerability in xenograft study (body weight, overt toxicity). It is filed as in vivo. How it is done:
In vivo antitumor activity of compound 1 was evaluated in a commonly used mouse model of MLL-r leukemia, [26]. 10^7 MV4;11 cells in 0.1 mL of saline and Matrigel (1:1) were injected subcutaneously into NOD-SCID mice, which can develop palpable tumors in ~2 weeks.
In vivo antitumor studies. All of the mouse studies were conducted in strict compliance with an IRB-approved protocol. NOD-SCID mice (4 to 6 weeks old, from Jackson lab) were obtained and maintained under specific pathogen-free conditions. 10^7 MV4;11 cells in medical grade saline and Matrigel (1:1, 0.1 mL) were inoculated subcutaneously and palpable tumors (2-3 mm in diameter) were developed in ~ 2 weeks. Mice were treated with compound 1 (15 mg/kg/day for 10 days) in saline (0.1 mL) administered intraperitoneally. Tumors were measured every 2 days and estimated by using the formula a×b^2/2.

We go through one compound from article PMC8344022, “Small-molecule inhibitor of AF9/ENL-DOT1L/AF4/AFF4 interactions suppresses malignant gene expression and tumor growth” (Theranostics, 2021).

Like-named read-outs stand apart in the source and are kept apart here.

T1 sequence (Q03111 489-559): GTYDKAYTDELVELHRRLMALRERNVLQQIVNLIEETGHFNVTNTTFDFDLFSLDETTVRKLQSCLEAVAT

On to `CC(C)(C)c1ccc(-n2cc(C(=O)NC3CCNCC3)nc2-c2ccccc2)cc1` [Compound 1], for which the IC50 in data set [1] was 3.3 ± 0.3 µM; in data set [2] (listed as Compound-1) it was 0.9 to 3.5 µM; in data set [2], 0.94 to 3.5 µM. In addition, the Mode of inhibition result in data set [2] (comparison of IC50s with Kds of the PPIs) was “non-competitive mode of inhibition”. The EC50 lay within 3 to 11 µM in data set [3] (168 h, MLL-r leukemia (MV4;11, Molm-13, THP-1) and Myc-driven blood cancer cells, 7 days, read-out: EC50 against proliferation (range)); 4.7 to 11 µM in data set [3] (MLL-r leukemia cells Molm-13, MV4;11 and THP-1, read-out: EC50s against proliferation (range)); 3.3 to 9.7 µM in data set [3] (Myc-driven blood cancer cells HL60, Kasumi-1, Jurkat, RPMI8226, U266, read-out: EC50s against proliferation (range)). The “Antiproliferative activity against solid tumor cells” value in data set [3] (MCF-7, MDA-MB-231 and two pancreatic cancer cells) is “reduced activity”. In addition, the “MLL-AF9-bound DOT1L and AF4 (Co-IP)” value in data set [4] was “dose-dependent decrease of MLL-AF9-bound DOT1L and AF4”. Moreover, the “Differentiation: cells expressing CD14 and CD11b” value in data set [5] is “significantly more cells expressing high levels of CD14 and CD11b”. Moreover, the “Cell phenotype by Giemsa staining” value in data set [6] is “more differentiated phenotype with reduced nucleus”. In addition, the Body weight result in data set [7] (15 mg/kg for Day 1-10) is “did not cause significant weight losses”. Further, the Overt toxicity entry in data set [7] (mouse model of MLL-r leukemia, 15 mg/kg) is “without overt toxicity”.
